The test has as its target T1, human GPBAR1 receptor (Homo sapiens, UniProt Q8TDU6).
T1 construct: expressed in transfected cells
T1 sequence (Q8TDU6 1-330): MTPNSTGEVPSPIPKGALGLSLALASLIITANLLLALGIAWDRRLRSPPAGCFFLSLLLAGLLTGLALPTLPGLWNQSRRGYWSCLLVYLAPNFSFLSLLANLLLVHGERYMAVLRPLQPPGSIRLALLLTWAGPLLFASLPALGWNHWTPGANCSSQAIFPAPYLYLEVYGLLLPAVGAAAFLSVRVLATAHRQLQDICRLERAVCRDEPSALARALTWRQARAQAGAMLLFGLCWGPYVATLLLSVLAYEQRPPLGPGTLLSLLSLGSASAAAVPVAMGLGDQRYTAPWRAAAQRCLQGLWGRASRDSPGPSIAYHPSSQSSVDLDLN
The test is described as follows: functional cAMP assay in CHO-dhfr(minus) cells expressing human GPBAR1 receptors. Format: cell-based. The settings on record: human EC50, functional cAMP assay, 30 min at 30° C. As for the experimental part: The final clone was verified by DNA sequence analysis. The plasmid was transfected into CHO cells deficient in dihydrofolate reductase activity (CHO-dhfr−) using Lipofectamine plus (Invitrogen). Clones were isolated in limited dilution conditions and identified by activities in the cAMP assay using lithocholic acid as agonist.
The growth medium was exchanged with Krebs Ringer Bicarbonate buffer with 1 mM IBMX and incubated at 30° C. for 30 min. Compounds were added to a final assay volume of 100 μl and incubated for 30 min at 30° C. […] The time-resolved energy transfer is measured by a TRF reader (Evotec Technologies GmbH, Hamburg Germany), equipped with a ND:YAG laser as excitation source.
EC50 values were determined using Activity Base analysis (ID Business Solution, Limited). […] Specificity for GPBAR1 was tested in non-transfected CHO cells in the same assay as above.
(Changes in cAMP serve as a functional read-out for many G protein-coupled receptors.)

Usually EC50 stands for the concentration needed to bring the measured effect to its halfway point. Read a high EC50 as a need for much substance. `Cc1cc(C(C=C(c2ccccc2)c2ccccc2)=NO)cc(C)n1` (mixture of isomers) [Example 66, 1-(2,6-Dimethyl-pyridin-4-yl)-3,3-diphenyl-propenone oxime] had an EC50 of 300 nM. Compound `COC(=O)c1ccc(-c2ccc(C(CC(=NO)c3ccnc(C)c3)c3ccccc3C)cc2)cc1` (mixture of isomers) [Example 74, 4′-[3-[Hydroxyimino]-3-(2-methyl-pyridin-4-yl)-1-o-tolyl-propyl]-biphenyl-4-carboxylic acid methyl ester] yielded an EC50 of 218 nM. The EC50 values of the last two compounds are within 1.5-fold of each other. As to `Cn1cc(C(CC(c2ccc(C(=O)NCCO)c(F)c2)c2ccccc2Cl)=NO)ccc1=O` (mixture of isomers) [Example 216, (E/Z)-4-(1-(2-Chlorophenyl)-3-(hydroxyimino)-3-(1-methyl-6-oxo-1,6-dihydropyridin-3-yl)propyl)-2-fluoro-N-(2-hydroxyethyl)benzamide], the EC50 worked out at 255 nM. The EC50 values of the last two compounds are within 1.5-fold of each other. `Cc1ccccc1C(CC(=NO)c1ccncc1)c1cccc(Br)c1` (racemic) [Example 11, 3-(3-Bromo-phenyl)-1-pyridin-4-yl-3-o-tolyl-propan-1-one oxime]: a half-maximal response (EC50) required 40 nM. The figure for `CCC(CC(=NO)c1ccncc1)c1cccc(Br)c1` (racemic) [Example 13, 3-(3-Bromo-phenyl)-1-pyridin-4-yl-pentan-1-one oxime] is 173 nM; for `Cc1ccc(C(CC(=NO)c2ccncc2)c2ccc(N(C)C)cc2)cc1C` (racemic) [Example 17, 3-(4-Dimethylamino-phenyl)-3-(3,4-dimethyl-phenyl)-1-pyridin-4-yl-propan-1-one oxime] it is 380 nM; for `Cc1cc(C)cc(C(CC(=NO)c2ccncc2)c2ccc(N(C)C)cc2)c1` (racemic) [Example 18, 3-(4-Dimethylamino-phenyl)-3-(3,5-dimethyl-phenyl)-1-pyridin-4-yl-propan-1-one oxime] it is 661 nM. The compound `Cc1ccccc1C(CC(=NO)c1ccncc1)c1cccc(-c2ccc(S(C)(=O)=O)cc2)c1` (racemic) [Example 29, 3-(4′-Methanesulfonyl-biphenyl-3-yl)-1-pyridin-4-yl-3-o-tolyl-propan-1-one oxime] yielded an EC50 of 400 nM. The figure for `Cc1ccccc1C(CC(=NO)c1ccncc1)c1cccc(-c2cccc(S(C)(=O)=O)c2)c1` (racemic) [Example 30, 3-(3′-Methanesulfonyl-biphenyl-3-yl)-1-pyridin-4-yl-3-o-tolyl-propan-1-one oxime] is 181 nM; for `Cc1ccccc1C(CC(=NO)c1ccncc1)c1ccc(-c2cccc(S(C)(=O)=O)c2)cc1` (racemic) [Example 32, 3-(3′-Methanesulfonyl-biphenyl-4-yl)-1-pyridin-4-yl-3-o-tolyl-propan-1-one oxime] it is 255 nM; for `Cc1ccccc1C(CC(=NO)c1ccncc1)c1ccc(-c2ccc(S(C)(=O)=O)cc2)cc1` (racemic) [Example 33, 3-(4′-Methanesulfonyl-biphenyl-4-yl)-1-pyridin-4-yl-3-o-tolyl-propan-1-one oxime] it is 47 nM. The figure for `Cc1ccccc1C(CC(=NO)c1ccncc1)c1ccc(-c2cncnc2)cc1` (racemic) [Example 34, 1-Pyridin-4-yl-3-(4-pyrimidin-5-yl-phenyl)-3-o-tolyl-propan-1-one oxime] is 14 nM; for `Cc1ccccc1C(CC(=NO)c1ccncc1)c1ccc(N2CCCCC2)cc1` (racemic) [Example 40, 3-(4-Piperidin-1-yl-phenyl)-1-pyridin-4-yl-3-o-tolyl-propan-1-one oxime] it is 34 nM; for `Cc1ccccc1C(CC(=NO)c1ccncc1)c1ccc(N2CCOCC2)cc1` (racemic) [Example 41, 3-(4-Morpholin-4-yl-phenyl)-1-pyridin-4-yl-3-o-tolyl-propan-1-one oxime] it is 36 nM.

Compound `CCN(CC)c1ccc(C(CC(=NO)c2ccncc2)c2ccccc2C)cc1` (racemic) [Example 42, 3-(4-Diethylamino-phenyl)-1-pyridin-4-yl-3-o-tolyl-propan-1-one oxime] displayed an EC50 of 156 nM. This EC50 lies about 4.3-fold higher than the previous one.

For the compound `Cc1cc(C(=NO)C(Cc2ccc(Br)cc2)c2ccccc2)cc(C)n1` (racemic) [Example 45, 3-(4-Bromo-phenyl)-1-(2,6-dimethyl-pyridin-4-yl)-2-phenyl-propan-1-one oxime], the EC50 was found to be 1160 nM. In the case of `ON=C(CC(c1ccccc1)c1ccc(Br)cc1)c1ccnc(Cl)c1` (racemic) [Example 46, 3-(4-Bromo-phenyl)-1-(2-chloro-pyridin-4-yl)-3-phenyl-propan-1-one oxime], the EC50 was 1360 nM. For `Cc1ccccc1C(CC(=NO)c1cc(Cl)ccc1Cl)c1ccc(Br)cc1` (racemic) [Example 49, 3-(4-Bromo-phenyl)-1-(2,5-dichloro-phenyl)-3-o-tolyl-propan-1-one oxime], the concentration for a half-maximal effect (EC50) stood at 2910 nM. For `ON=C(CC(c1ccccc1)c1ccccc1)c1cc(Cl)ncc1F` (racemic) [Example 55, 1-(2-Chloro-5-fluoro-pyridin-4-yl)-3,3-diphenyl-propan-1-one oxime] the value was 117 nM; for `Cc1cc(C(CC(c2ccccc2)c2ccccc2)=NO)ccn1` (racemic) [Example 57, 1-(2-Methyl-pyridin-4-yl)-3,3-diphenyl-propan-1-one oxime], 73 nM; for `ON=C(CC(c1ccccc1)c1ccccc1)c1cc(F)ncc1Cl` (racemic) [Example 58, 1-(5-Chloro-2-fluoro-pyridin-4-yl)-3,3-diphenyl-propan-1-one oxime], 76 nM. The figure for `Cc1cnc(F)cc1C(CC(c1ccccc1)c1ccccc1)=NO` (racemic) [Example 59, 1-(2-Fluoro-5-methyl-pyridin-4-yl)-3,3-diphenyl-propan-1-one oxime] is 17 nM; for `ON=C(CC1c2ccccc2-c2ccccc21)c1ccncc1` (racemic) [Example 61, 2-(9H-Fluoren-9-yl)-1-pyridin-4-yl-ethanone oxime] it is 4590 nM.

`CN(C)c1ccc(C(CC(=NO)c2ccncc2)c2c[nH]c3ccccc23)cc1` (racemic) [Example 62, 3-(4-Dimethylamino-phenyl)-3-(1H-indol-3-yl)-1-pyridin-4-yl-propan-1-one oxime] had an EC50 of 2710 nM.

Turning to `Cc1[nH]c2ccccc2c1C(CC(=NO)c1ccncc1)c1ccc(N(C)C)cc1` (racemic) [Example 63, 3-(4-Dimethylamino-phenyl)-3-(2-methyl-1H-indol-3-yl)-1-pyridin-4-yl-propan-1-one oxime], the EC50 amounted to 2730 nM. For `Cc1cc(C(CC(c2ccccc2)c2ccccc2)=NO)cc(C)n1` (racemic) [Example 67, 1-(2,6-Dimethyl-pyridin-4-yl)-3,3-diphenyl-propan-1-one oxime] the value was 132 nM; for `Cc1ccccc1C(CC(=NO)c1ccncc1)c1ccc(C(=O)O)cc1` (racemic) [Example 70, 4-{3-[Hydroxyimino]-3-pyridin-4-yl-1-o-tolyl-propyl}-benzoic acid], 2730 nM; for `Cc1ccccc1C(CC(=NO)c1ccncc1)c1cccc(C(=O)O)c1` (racemic) [Example 71, 3-{3-[Hydroxyimino]-3-pyridin-4-yl-1-o-tolyl-propyl}-benzoic acid], 1620 nM. The figure for `CCOC(=O)c1cccc(-c2ccc(C(CC(=NO)c3ccnc(C)c3)c3ccccc3C)cc2)c1` (racemic) [Example 78, 4′-[3-[Hydroxyimino]-3-(2-methyl-pyridin-4-yl)-1-o-tolyl-propyl]-biphenyl-3-carboxylic acid ethyl ester] is 381 nM; for `COC(=O)c1ccc(-c2ccc(C(CC(=NO)c3ccnc(C)c3)c3ccccc3C)cc2)c(F)c1` (racemic) [Example 81, 2-Fluoro-4′-[3-[hydroxyimino]-3-(2-methyl-pyridin-4-yl)-1-o-tolyl-propyl]-biphenyl-4-carboxylic acid methyl ester] it is 295 nM; for `Cc1cc(C(CC(c2ccc(-c3ccc(C(=O)O)cc3F)cc2)c2ccccc2C)=NO)ccn1` (racemic) [Example 82, 2-Fluoro-4′-[3-[hydroxyimino]-3-(2-methyl-pyridin-4-yl)-1-o-tolyl-propyl]-biphenyl-4-carboxylic acid] it is 43 nM. Regarding `COC(=O)c1ccc(-c2ccc(C(CC(=NO)c3ccnc(C)c3)c3ccccc3C)cc2)cc1Cl` (racemic) [Example 83, 3-Chloro-4′-[3-[hydroxyimino]-3-(2-methyl-pyridin-4-yl)-1-o-tolyl-propyl]-biphenyl-4-carboxylic acid methyl ester], it took 455 nM to reach a half-maximal effect (EC50). For `Cc1cc(C(CC(c2ccc(-c3ccc(C(=O)O)c(Cl)c3)cc2)c2ccccc2C)=NO)ccn1` (racemic) [Example 84, 3-Chloro-4′-[3-[hydroxyimino]-3-(2-methyl-pyridin-4-yl)-1-o-tolyl-propyl]-biphenyl-4-carboxylic acid] the value was 27 nM; for `Cc1cc(C(CC(c2ccc(C#CCO)cc2)c2ccccc2C)=NO)ccn1` (racemic) [Example 85, 3-[4-(3-Hydroxy-prop-1-ynyl)-phenyl]-1-(2-methyl-pyridin-4-yl)-3-o-tolyl-propan-1-one oxime], 1 nM.

(Values after patent publication US8765730B2 (Hoffmann-La Roche Inc, priority 2010, dated 2014).)
